Measured values as given in paper PMC9144492, “New Screening Protocol for Effective Green Solvents Selection of Benzamide, Salicylamide and Ethenzamide” (Molecules, 2022).

Experiments:
[1] = solid residues analysis after shake-flask (DSC, FTIR-ATR); type: physicochemical; settings: sediments after shake-flask in water and organic solvents, FTIR-ATR and literature
Source text: The equilibrium in the solid-liquid saturated systems is governed not only by the properties of solvents but also by the solid state including polymorphic or pseudopolymorphic transformations as well as solvates formation. […] For this reason, the sediments collected after the shake-flask experiments for water and studied organic solvents were examined using differential scanning calorimetry (DSC) and Fourier transform infrared spectroscopy–attenuated total reflectance (FTIR-ATR) techniques. The detailed characteristics of solid residues were provided in supplementary materials (see Figures S5–S10). In the case of solvate formation or polymorphic transformation, the absorption band shifts on the IR spectra are often related to new hydrogen bonding patterns. In the case of DSC thermograms, new phases can be detected by observing additional signals due to the heat transfer associated with polymorphic transition or pseudo-polymorph transformations. […] This conclusion is in good accord with already reported observation. According to Ouyang et al. (2019) benzamide solid form is not altered in contact with such solvents as water, methanol, ethanol, 1-propanol, isopropanol, 1-butanol, isobutanol, methyl acetate, ethyl acetate, butyl acetate, acetonitrile and acetone. In the case of salicylamide, the only polymorphic transformation observed so far was with the use of high pressure. […]
The solid residues obtained after “shake-flask” procedure were dried on air and used for IR spectrophotometric and DSC measurements. Infrared spectra were recorded using PerkinElmer (Waltham, MA, USA) spectrophotometer equipped with a diamond attenuated total reflection (ATR) device. DSC thermograms were recorded using DSC 6000 Perkin Elmer (Waltham, MA, USA) calorimeter (heating rate: 5 K/min, nitrogen flow: 20 mL/min) calibrated using indium and zinc reference standards provided by the manufacturer.

[2] = COSMO-RS solubility computation; settings: acetic acid
[3] = shake-flask solubility in aqueous binary mixtures of DMSO, DMF and 4FM; type: physicochemical; settings: aqueous 4FM mixture, 4FM mole fraction 0.6; room temperature (Figure 4)
Protocol: In this study, the “shake-flask” procedure used in the previous studies was applied and it consists of the following steps. First, the mixtures (suspensions) containing saturated solution and undissolved solids were prepared in glass screw test tubes. Then the mixtures were incubated and agitated for 24 h at controlled temperature (298.15, 303.15, 308.15, or 313.15 K) and 60 rpm using Orbital Shaker ES-20/60 (Biosan, Riga, Latvia). At the next step, the temperature was still controlled, however, the agitation was turned off and suspensions were let to settle down for an hour. Then, the supernatant was filtrated using 0.22 μm PTFE syringe membrane filter. Nextly, 0.1 mL of the filtrate was diluted with 2 mL of methanol. The samples prepared in this way were protected against crystallization, as the concentration was low. 0.5 mL of the filtrate was used for density measurements. All equipment including automatic pipette tips, membrane filters, and syringes were preheated at the measurement temperature in order to avoid the solute precipitation. All “shake-flask” experiments were carried out in triplicate. The concentration in the samples was determined spectrophotometrically using the calibration curve method. […] All UV spectra were recorded using an A360 UV-VIS spectrophotometer (AOE Instruments, Shanghai, China).

NC(=O)c1ccccc1 [benzamide]
phase change of the solid in saturated solutions (polymorph / solvate) [1]: do not show a tendency to undergo phase changes

CCOc1ccccc1C(N)=O [ethenzamide]
phase change of the solid in saturated solutions (polymorph / solvate) [1]: do not show a tendency to undergo phase changes

NC(=O)c1ccccc1O [salicylamide]
mole fraction error of COSMO-RS computed solubility versus experiment [2]: −60% | phase change of the solid in saturated solutions (polymorph / solvate) [1]: do not show a tendency to undergo phase changes | molar fraction solubility (xS) [3]: 0.379 molar fraction
